As usually defined, the AUC(0-inf) is total exposure, with the tail of the curve extrapolated. A low value points to less exposure. By inhibition is commonly meant the change of the read-out against control, counted positive when it falls. What is called pKd is −log10 of the Kd, conventionally taken in molar units. A lower pKd goes with a large Kd. As usually defined, the clearance is the volume of plasma or blood freed of the substance per unit of time. A low value points to inefficient removal. Broadly, the bioavailability is dose-corrected exposure relative to a reference, in per cent. By Tmax is commonly meant the time at which the peak concentration occurs. What is called Cmax is the highest concentration seen after dosing. The term pEC50 denotes the EC50 on a negative log10 scale, so that one unit is a factor of ten. As a reminder, the half-life is how long it takes for the measured level to halve. A higher half-life goes with slow loss. By AUC(0-t) is commonly meant exposure summed from dosing to a finite time, without extrapolation to infinity. A higher AUC(0-t) goes with more exposure.

This note sets out measurements from ChEMBL document CHEMBL4823255, “Discovery of novel potent migrastatic Thiazolo[5,4-b]pyridines targeting Lysyl-tRNA synthetase (KRS) for treatment of Cancer metastasis” (Eur J Med Chem, 2021).

Series [1] deals with MDA-MB-231. The experiment in a line: Antimigratory activity against tetracycline-induced KRS T52D mutant overexpressing human MDA-MB-231 cells assessed as inhibition of cell migration at 3 uM measured after 4 hrs by flourescence plate reader method. The series is classed as functional.
The next series deals with CYP2C9 (Homo sapiens, UniProt P11712). The experiment in a line: Inhibition of CYP2C9 (unknown origin) assessed as enzyme residual activity at 10 uM. In kind it is ADME. As to conditions: read-out: Activity.
Chain of CYP2C9 (P11712 whole entry): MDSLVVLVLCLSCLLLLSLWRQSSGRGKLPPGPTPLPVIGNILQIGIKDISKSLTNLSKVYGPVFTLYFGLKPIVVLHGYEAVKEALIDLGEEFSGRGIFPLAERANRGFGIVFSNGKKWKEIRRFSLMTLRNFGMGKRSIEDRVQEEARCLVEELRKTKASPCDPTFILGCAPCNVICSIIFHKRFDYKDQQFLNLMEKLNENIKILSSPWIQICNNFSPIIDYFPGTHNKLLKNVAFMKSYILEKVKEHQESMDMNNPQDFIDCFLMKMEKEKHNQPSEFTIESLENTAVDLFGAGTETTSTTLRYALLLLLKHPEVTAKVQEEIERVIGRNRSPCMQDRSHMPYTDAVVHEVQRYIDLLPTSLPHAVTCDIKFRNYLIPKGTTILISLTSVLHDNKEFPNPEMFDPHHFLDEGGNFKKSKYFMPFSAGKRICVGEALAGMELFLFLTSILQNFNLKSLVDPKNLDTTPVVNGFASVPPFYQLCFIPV
The next series has as its target T1, CYP1A2 (Homo sapiens, UniProt P05177).
T1 sequence (P05177 whole entry): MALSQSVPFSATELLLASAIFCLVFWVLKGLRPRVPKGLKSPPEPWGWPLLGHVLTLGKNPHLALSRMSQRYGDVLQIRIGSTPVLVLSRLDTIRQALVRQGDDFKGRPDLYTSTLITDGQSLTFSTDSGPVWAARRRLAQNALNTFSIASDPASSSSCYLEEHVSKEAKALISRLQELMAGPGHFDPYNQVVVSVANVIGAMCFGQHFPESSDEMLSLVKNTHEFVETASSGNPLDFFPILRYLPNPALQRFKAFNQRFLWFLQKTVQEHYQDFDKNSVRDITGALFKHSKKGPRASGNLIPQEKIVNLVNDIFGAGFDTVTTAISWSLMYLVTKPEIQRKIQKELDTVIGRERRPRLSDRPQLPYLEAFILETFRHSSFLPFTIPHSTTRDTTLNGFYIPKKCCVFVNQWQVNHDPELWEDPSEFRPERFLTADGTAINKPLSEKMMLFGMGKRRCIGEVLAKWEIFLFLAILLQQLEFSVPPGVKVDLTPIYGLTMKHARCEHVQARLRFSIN
The experiment in a line: Inhibition of CYP1A2 (unknown origin) assessed as enzyme residual activity at 10 uM. The series is classed as ADME. To be noted: read-out: Activity.

Another series concerns the target CYP2C19 (Homo sapiens, UniProt P33261). As to the kind of experiment: Inhibition of CYP2C19 (unknown origin) assessed as enzyme residual activity at 10 uM. The series is classed as ADME. As to conditions: read-out: Activity.
A further series has as its target CYP3A4 (Homo sapiens, UniProt P08684). The experiment in a line: Inhibition of CYP3A4 (unknown origin) assessed as enzyme residual activity at 10 uM. In kind it is ADME. As to conditions: read-out: Activity.
The nature of series [2]: AUC(infinity) in mouse at 5 mg/kg, iv measured after 24 hrs. The series is classed as ADME, organism-based. Also noted: route intravenous, time 24 hrs, dose 5 mg/kg. To be noted: in vivo.
Series [3] has as its target T2, Lysine--tRNA ligase (Homo sapiens, UniProt Q15046). The experiment in a line: Binding affinity to human N-terminal His6-tagged 15N-labelled KRS (1 to 207 residues) expressed in Escherichia coli BL21(DE3) measured by flourescence based binding titration assay.
Target sequence in this assay (Q15046 whole entry, the tested form may be a part): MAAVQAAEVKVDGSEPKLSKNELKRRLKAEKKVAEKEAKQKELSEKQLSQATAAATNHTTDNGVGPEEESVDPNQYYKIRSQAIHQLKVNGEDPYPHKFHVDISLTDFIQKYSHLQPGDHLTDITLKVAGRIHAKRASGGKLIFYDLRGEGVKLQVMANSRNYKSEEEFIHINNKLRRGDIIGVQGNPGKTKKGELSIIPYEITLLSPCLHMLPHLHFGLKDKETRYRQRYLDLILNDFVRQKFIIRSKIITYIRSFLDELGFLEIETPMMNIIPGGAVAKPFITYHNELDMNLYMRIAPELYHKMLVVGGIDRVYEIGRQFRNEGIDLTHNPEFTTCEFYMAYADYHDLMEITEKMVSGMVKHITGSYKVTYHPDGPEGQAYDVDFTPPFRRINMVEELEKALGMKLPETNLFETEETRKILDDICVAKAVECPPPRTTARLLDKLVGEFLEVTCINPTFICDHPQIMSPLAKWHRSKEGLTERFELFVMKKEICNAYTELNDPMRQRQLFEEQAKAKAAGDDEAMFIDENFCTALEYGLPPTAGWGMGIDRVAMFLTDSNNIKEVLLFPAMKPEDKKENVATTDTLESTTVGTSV
Series [4] in a line: Metabolic stability in rat liver microsomes assessed as parent compound remaining measured after 30 mins. The series is classed as ADME, Microsome. To be noted: read-out: Stabilty.
Series [5] can be described thus: Clearance in mouse at 5 mg/kg, iv measured after 24 hrs. In kind it is ADME, organism-based. As to conditions: in vivo.
Series [6] is described as follows: Volume of distribution at steady state in mouse at 5 mg/kg, iv measured after 24 hrs. In kind it is ADME, organism-based. To be noted: in vivo, read-out: Vdss.
Series [7] is described as follows: Oral bioavailability in mouse at 5 mg/kg measured after 24 hrs. As to conditions: in vivo. In kind it is ADME, organism-based.
The nature of series [8]: Permeability of the compound at 50 uM measured after 4 hrs by PAMPA assay. The series is classed as ADME. As to conditions: read-out: permeability. (In general: The PAMPA barrier holds no transporters, so it reflects passive diffusion.)
Series [9] can be described thus: Metabolic stability in mouse liver microsomes assessed as parent compound remaining measured after 30 mins. The series is classed as ADME, Microsome. As to conditions: read-out: Stabilty. In general terms: Liver microsomes are a subcellular fraction often used to study metabolism.
Series [10] can be described thus: Tmax in mouse at 5 mg/kg, po measured after 24 hrs. To be noted: in vivo. The series is classed as ADME, organism-based.
Series [11] can be described thus: Cmax in mouse at 5 mg/kg, po measured after 24 hrs. The series is classed as ADME, organism-based. Also noted: route oral, dose 5 mg/kg, time 24 hrs. As to conditions: in vivo.
Series [12] deals with MDA-MB-231. The experiment in a line: Antimigratory activity against tetracycline-induced KRS T52D mutant overexpressing human MDA-MB-231 cells assessed as inhibition of cell migration measured after 4 hrs by flourescence plate reader method. The series is classed as functional, cell-based. As to conditions: MDA-MB-231, 4 h.
The next series addresses CYP2D6 (Homo sapiens, UniProt P10635). The experiment in a line: Inhibition of CYP2D6 (unknown origin) assessed as enzyme residual activity at 10 uM. In kind it is ADME. As to conditions: read-out: Activity.
The nature of series [13]: Metabolic stability in human liver microsomes assessed as parent compound remaining measured after 30 mins. In kind it is ADME, Microsome. To be noted: read-out: Stabilty.
In series [14] the target is T2, Lysine--tRNA ligase. The experiment in a line: Binding affinity to human N-terminal His6-tagged 15N-labelled KRS (1 to 207 residues) expressed in Escherichia coli BL21(DE3) at 0.4 mM by 1H-15N TROSY NMR analysis.
Target sequence in this assay (Q15046 2-597 limits assumed): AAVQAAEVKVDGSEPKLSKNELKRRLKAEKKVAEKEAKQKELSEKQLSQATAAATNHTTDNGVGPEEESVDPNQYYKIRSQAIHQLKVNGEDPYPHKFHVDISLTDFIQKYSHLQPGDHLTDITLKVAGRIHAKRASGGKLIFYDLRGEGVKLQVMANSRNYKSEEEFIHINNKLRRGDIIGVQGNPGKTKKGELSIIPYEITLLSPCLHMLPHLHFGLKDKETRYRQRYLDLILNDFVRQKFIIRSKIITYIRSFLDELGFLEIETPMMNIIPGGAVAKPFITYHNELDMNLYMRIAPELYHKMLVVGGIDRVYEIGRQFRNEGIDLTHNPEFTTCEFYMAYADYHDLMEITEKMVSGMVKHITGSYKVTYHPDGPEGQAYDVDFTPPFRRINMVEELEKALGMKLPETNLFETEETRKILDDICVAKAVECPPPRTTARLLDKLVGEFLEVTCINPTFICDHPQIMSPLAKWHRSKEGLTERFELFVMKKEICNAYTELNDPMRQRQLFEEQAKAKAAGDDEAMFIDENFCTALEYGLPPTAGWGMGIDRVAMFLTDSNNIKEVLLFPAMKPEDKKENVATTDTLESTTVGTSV
A short description of series [15]: Half life in mouse at 5 mg/kg, po measured after 24 hrs. The series is classed as ADME, organism-based. To be noted: in vivo.
For a further series, the system named is 4T1. As to the kind of experiment: Anti-metastasis activity in mouse 4T1 cells xenografted in BALB/cAnCr mouse at 100 mg/kg, po administered for 16 days. In kind it is functional, organism-based. To be noted: time 16.0 day.
A short description of series [16]: AUC(t) in mouse at 5 mg/kg, iv measured after 24 hrs. The series is classed as ADME, organism-based. The arrangement: route intravenous, dose 5 mg/kg, time 24 hrs. To be noted: in vivo.
A short description of series [17]: Toxicity in Balb/cAnCr mouse xenografted with mouse 4T1 cells assessed as change in body weight at 100 mg/kg, po administered for 16 days. The series is classed as organism-based. As to conditions: in vivo, 384 h, time 16 day.
The nature of series [18]: AUC(t) in mouse at 5 mg/kg, po measured after 24 hrs. As to conditions: in vivo. In kind it is ADME, organism-based. Also noted: route oral, time 24 hrs, dose 5 mg/kg.
Series [19] is described as follows: Half life in mouse at 5 mg/kg, iv measured after 24 hrs. The series is classed as ADME, organism-based. As to conditions: in vivo.
The nature of series [20]: AUC(infinity) in mouse at 5 mg/kg, po measured after 24 hrs. The arrangement: route oral, dose 5 mg/kg, time 24 hrs. To be noted: in vivo. In kind it is ADME, organism-based.
Series [21] in a line: Metabolic stability in dog liver microsomes assessed as parent compound remaining measured after 30 mins. In kind it is ADME, Canis lupus familiaris, Microsome. To be noted: read-out: Stabilty.
Another series concerns NCI-H226. As to the kind of experiment: Antimigratory activity against human NCI-H226 cells assessed as inhibition of cell migration measured after 12 hrs by Transwell assay. As to conditions: NCI-H226, 12 h. In kind it is functional, cell-based.

pEC50, pKd: −log10 of the molar value. The source made the active and inactive calls. The calls are words filed in the database; no cut-off is given here. Some results are limits rather than exact numbers.

Chain of CYP2C19 (P33261 whole entry): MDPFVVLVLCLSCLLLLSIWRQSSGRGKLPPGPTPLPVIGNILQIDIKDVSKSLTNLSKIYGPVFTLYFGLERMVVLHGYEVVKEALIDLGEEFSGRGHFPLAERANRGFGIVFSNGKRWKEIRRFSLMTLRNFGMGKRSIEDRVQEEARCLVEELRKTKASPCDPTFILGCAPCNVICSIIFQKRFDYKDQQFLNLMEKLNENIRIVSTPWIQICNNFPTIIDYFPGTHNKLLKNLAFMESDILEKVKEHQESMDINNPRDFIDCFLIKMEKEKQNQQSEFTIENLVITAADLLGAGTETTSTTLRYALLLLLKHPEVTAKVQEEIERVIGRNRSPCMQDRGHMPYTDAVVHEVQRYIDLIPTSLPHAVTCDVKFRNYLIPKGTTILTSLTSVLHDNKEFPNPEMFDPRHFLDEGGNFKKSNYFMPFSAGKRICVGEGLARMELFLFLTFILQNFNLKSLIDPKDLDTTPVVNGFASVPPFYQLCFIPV
Chain of CYP3A4 (P08684 whole entry): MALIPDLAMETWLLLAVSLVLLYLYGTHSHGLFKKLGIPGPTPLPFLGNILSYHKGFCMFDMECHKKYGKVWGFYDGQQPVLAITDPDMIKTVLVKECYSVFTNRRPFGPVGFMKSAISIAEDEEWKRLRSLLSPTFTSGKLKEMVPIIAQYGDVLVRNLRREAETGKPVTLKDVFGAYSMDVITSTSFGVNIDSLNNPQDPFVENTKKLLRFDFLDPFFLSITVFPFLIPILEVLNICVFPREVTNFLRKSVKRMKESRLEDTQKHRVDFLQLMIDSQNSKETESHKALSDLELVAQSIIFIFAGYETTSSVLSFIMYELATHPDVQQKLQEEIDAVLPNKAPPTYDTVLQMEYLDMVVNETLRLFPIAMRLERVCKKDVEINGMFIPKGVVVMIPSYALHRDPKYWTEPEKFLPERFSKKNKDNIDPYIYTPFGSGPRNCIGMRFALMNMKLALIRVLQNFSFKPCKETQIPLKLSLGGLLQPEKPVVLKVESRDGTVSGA
Chain of CYP2D6 (P10635 whole entry): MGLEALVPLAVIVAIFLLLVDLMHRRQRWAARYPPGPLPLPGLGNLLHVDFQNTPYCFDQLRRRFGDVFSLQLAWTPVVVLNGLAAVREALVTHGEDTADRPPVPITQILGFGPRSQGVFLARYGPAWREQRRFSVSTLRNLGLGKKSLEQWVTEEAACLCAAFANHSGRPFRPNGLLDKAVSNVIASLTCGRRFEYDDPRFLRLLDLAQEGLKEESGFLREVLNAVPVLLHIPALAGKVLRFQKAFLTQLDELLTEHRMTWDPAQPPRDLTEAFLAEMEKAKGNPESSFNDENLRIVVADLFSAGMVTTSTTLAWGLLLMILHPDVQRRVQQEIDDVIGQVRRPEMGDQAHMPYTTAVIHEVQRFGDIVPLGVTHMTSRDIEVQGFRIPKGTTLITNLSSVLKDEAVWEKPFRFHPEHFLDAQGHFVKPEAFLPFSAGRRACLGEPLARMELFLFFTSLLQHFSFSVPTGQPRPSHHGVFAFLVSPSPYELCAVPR

For the compound `COc1ccc(CCN(Cc2ccc(C(=O)O)cc2)c2nc3ccc(CO)cc3s2)cc1`, the Activity result in the series on MDA-MB-231 [1] was “inactive”.
Regarding `CC(=O)N1CCN(c2ccc(OCC3COC(Cn4ccnc4)(c4ccc(Cl)cc4Cl)O3)cc2)CC1` (centres undefined) [KETOCONAZOLE], the activity at 10 µM was greater than 100% on CYP2C9, greater than 100% on CYP1A2, greater than 100% on CYP2C19 and 31.8% on CYP3A4.
For the compound `COc1ccc(CCN(Cc2ccc(C(=O)O)cc2)c2nc3cccnc3o2)cc1`, the Activity entry in the series with MDA-MB-231 [1] was “Active”.
On the same count and under the same terms, with `COc1ccc(CCN(Cc2ccc(C(=O)O)cc2)c2nc3cc(F)cc(F)c3[nH]2)cc1` the entry was “inactive”.
With `COc1ccc(CCN(Cc2ccc(C(=O)O)cc2)c2nc3cccnc3s2)cc1`, the AUC(0-inf) amounted to 216 ng·h/mL in series [2] and 192 ng·h/mL in [20]. The inhibition at 3 µM with MDA-MB-231 [1] stood at 70%. The pKd at Lysine--tRNA ligase [3] was 5.24. The remaining at 0.5 h in [4] stood at 73%; in series [9] it was 65.8%; in series [13] it was 62.8%; in [21] it was 79.5%. The clearance in series [5] was 392 mL/min/kg. The Vd in series [6] amounted to 149 L/kg. In [7], this compound showed a bioavailability of 87.9%. The Papp at 4 h, 50 µM in series [8] was 22.2 ×10⁻⁶ cm/s. In addition, the activity at 10 µM on CYP2C9 came to 74.6%; at CYP1A2 it was 91.1%; on CYP2D6, 97.9%; at CYP2C19, 92.2%; on CYP3A4 it was 98.4%. Further, the Tmax in [10] was found to be 4.17 h. This compound also yielded a Cmax in [11] of 40 ng/mL. In addition, the pEC50 in the series with MDA-MB-231 [12] was 7.09. Moreover, the Activity result on Lysine--tRNA ligase [14] and in the series with 4T1 was “Active” in each case. For the same compound, the half-life in [15] is 1.56 h; in [19], 6.05 h. Besides, the AUC(0-t) at 24 h in series [16] came out at 191 ng·h/mL; in series [18], 168 ng·h/mL. Also, in series [17], the Activity entry is reported as “Non-Toxic”.
`COc1ccc(CCN(Cc2ccc(C(=O)O)cc2)c2nc3cnccc3s2)cc1`: the Activity result with MDA-MB-231 [1] was “inactive”.
With `COc1ccc(CCN(Cc2ccc(C(=O)O)cc2)c2nc3ccc[n+]([O-])c3s2)cc1`, the Activity result with MDA-MB-231 [1] is “inactive”.
The same measure, in the same setting: then `COc1ccc(CCN(Cc2ccc(C(=O)O)cc2)c2nc3cc(NC(=O)Cc4ccc(OC)cc4)ccc3o2)cc1`, with “Active”; and `COc1ccc(CCN(Cc2ccc(C(=O)O)cc2)c2nc3cc(Cl)cnc3s2)cc1`, with “inactive”.
For `COc1ccc(CCN(Cc2ccc(C(=O)O)cc2)c2nc3ncccc3s2)cc1`, the Activity entry in the series on MDA-MB-231 [1] was “inactive”.
On the same count and under the same terms, then `COc1ccc(CCN(Cc2ccc(C(=O)O)cc2)c2nc3cc([N+](=O)[O-])ccc3o2)cc1`, with “Active”.
Take `Cc1cc(=O)n(-c2ccccc2)n1C` [ANTIPYRINE]: in series [8], the Papp at 4 h, 50 µM is 1.94 ×10⁻⁶ cm/s.
Take `CCC(C(=O)O)n1/c(=N/C(=O)c2cccc(C(F)(F)F)c2)sc2cc(F)c(F)cc21` (centres undefined): at Lysine--tRNA ligase [3], the pKd was 4.31. Moreover, the Activity entry on Lysine--tRNA ligase [14] was “Active”. In addition, the pEC50 in the series on NCI-H226 was 5.07.
Take `COc1ccc(CCN(Cc2ccc(C(=O)O)cc2)c2nc3cncnc3s2)cc1`: the Activity entry in the series with MDA-MB-231 [1] was “inactive”.
As for `COc1ccc(CCN(Cc2ccc(C(=O)O)cc2)c2nc3cc(F)c(F)c(F)c3s2)cc1`, in the series on MDA-MB-231 [1], the inhibition at 3 µM was found to be 28%.
As for `COc1ccc(CCN(Cc2ccc(C(=O)O)cc2)c2nc3ccc(C(=O)O)cc3s2)cc1`, the Activity result in the series with MDA-MB-231 [1] is “inactive”.
The same measure, in the same setting: with `COc1ccc(CCN(Cc2ccc(C(=O)O)cc2)c2nc3cc(NC(=O)c4ccc(N5CCN(C)CC5)cc4)ccc3o2)cc1` the entry was “inactive”; with `COc1ccc(CCN(Cc2ccc(C(=O)O)cc2)c2nc3ccccc3o2)cc1`, “Active”.
